Columns and labels:
Substance-K receptor = molecular target: T1, Substance-K receptor (Homo sapiens, UniProt P21452); assay type: cell membranes, CHO, Membrane; also: in other assays of this panel Not Active means under 50% inhibition at 10 µM
T1 sequence (P21452 whole entry): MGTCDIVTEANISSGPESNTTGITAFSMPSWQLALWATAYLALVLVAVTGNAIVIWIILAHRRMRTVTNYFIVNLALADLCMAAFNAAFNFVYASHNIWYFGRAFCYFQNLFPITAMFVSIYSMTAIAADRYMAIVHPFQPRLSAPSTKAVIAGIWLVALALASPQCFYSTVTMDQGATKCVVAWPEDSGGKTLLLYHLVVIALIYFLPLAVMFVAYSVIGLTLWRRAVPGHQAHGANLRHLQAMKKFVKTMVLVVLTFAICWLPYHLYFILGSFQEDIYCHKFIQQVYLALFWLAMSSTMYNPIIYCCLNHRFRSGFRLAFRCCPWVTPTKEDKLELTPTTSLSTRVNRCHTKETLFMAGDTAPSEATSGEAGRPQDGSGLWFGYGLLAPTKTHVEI

[1] = DRUGMATRIX: Phosphodiesterase PDE4 enzyme inhibition (substrate: [3H]cAMP + cAMP); details: u-937; Not Active = under 50% inhibition at 10 µM
Interstitial collagenase = molecular target: T2, Interstitial collagenase (Homo sapiens, UniProt P03956); test: biochemical; assay type: tissue-based, Rheumatoid synovial fibroblasts;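 also: MMP-1 enzyme inhibition assay using a peptide substrate; in other assays of this panel Not Active means under 50% inhibition at 10 µM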
T2 sequence (P03956 whole entry): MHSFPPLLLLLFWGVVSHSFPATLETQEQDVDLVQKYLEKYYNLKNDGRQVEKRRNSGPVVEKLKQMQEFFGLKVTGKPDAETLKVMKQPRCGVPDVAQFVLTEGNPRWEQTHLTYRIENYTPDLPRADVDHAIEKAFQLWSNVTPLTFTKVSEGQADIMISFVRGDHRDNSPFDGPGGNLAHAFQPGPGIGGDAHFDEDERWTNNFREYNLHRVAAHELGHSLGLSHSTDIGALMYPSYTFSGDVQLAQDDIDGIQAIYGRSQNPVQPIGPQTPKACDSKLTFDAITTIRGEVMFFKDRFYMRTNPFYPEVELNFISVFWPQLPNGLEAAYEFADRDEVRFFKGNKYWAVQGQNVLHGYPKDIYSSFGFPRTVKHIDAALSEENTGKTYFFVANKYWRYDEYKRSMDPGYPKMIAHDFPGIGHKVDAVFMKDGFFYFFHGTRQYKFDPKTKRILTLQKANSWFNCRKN

Insulin receptor = Insulin receptor (Rattus norvegicus, UniProt P15127); assay type: cell membranes, Wistar, Liver, Membrane; also: in other assays of this panel Not Active means under 50% inhibition at 10 µM
Chain of Insulin receptor (P15127 27-759 limits assumed): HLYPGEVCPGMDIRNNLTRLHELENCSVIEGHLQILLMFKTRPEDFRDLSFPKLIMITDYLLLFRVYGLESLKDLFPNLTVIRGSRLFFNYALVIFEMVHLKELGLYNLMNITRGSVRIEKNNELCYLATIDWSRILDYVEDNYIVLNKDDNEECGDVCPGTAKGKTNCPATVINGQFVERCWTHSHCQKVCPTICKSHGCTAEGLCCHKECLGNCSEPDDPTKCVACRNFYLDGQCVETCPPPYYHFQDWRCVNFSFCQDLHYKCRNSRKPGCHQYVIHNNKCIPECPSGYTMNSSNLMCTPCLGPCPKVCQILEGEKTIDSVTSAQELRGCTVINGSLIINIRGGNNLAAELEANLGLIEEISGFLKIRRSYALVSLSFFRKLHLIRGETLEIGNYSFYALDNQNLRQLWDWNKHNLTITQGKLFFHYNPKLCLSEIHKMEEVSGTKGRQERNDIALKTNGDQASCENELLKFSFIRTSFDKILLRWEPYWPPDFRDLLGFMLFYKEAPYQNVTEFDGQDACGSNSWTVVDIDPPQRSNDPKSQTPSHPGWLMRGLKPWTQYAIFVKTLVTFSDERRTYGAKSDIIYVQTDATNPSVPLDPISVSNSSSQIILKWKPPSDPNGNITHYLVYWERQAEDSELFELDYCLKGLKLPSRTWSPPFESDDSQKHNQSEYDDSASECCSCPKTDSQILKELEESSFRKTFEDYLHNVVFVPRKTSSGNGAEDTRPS
Chain of Insulin receptor (P15127 764-1383 limits assumed): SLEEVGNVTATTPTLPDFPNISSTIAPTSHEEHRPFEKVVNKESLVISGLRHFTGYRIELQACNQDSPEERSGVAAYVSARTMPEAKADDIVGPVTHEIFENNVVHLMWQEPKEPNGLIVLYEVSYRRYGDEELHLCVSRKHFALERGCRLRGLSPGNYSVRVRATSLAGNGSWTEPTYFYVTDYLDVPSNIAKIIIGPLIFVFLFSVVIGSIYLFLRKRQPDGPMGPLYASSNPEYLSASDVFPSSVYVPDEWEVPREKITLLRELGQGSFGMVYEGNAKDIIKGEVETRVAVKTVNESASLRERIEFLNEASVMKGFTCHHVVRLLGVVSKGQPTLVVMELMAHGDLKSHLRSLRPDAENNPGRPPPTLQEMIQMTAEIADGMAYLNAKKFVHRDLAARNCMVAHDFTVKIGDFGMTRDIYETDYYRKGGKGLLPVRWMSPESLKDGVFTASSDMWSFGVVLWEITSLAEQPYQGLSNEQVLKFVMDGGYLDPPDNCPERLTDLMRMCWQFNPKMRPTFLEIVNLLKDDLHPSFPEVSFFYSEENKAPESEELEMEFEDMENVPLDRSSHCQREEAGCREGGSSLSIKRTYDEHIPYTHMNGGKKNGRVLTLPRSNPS

Melanocortin receptor 5 = Melanocortin receptor 5 (Homo sapiens, UniProt P33032); assay type: cell membranes, HEK293, Membrane; also: in other assays of this panel Not Active means under 50% inhibition at 10 µM
Chain of Melanocortin receptor 5 (P33032 whole entry): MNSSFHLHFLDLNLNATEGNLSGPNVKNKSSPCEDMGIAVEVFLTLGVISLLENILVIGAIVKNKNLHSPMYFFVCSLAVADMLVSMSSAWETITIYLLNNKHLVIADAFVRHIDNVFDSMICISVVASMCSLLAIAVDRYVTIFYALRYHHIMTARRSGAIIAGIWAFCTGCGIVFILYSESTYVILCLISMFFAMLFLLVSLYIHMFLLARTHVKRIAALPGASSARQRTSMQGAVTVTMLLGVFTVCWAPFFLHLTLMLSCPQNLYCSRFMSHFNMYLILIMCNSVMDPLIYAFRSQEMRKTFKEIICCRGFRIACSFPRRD

[2] = molecular target: Voltage-gated inwardly rectifying potassium channel KCNH2 (Homo sapiens, UniProt Q12809); details: hek293; also: in other assays of this panel Not Active means under 50% inhibition at 10 µM
Chain of Voltage-gated inwardly rectifying potassium channel KCNH2 (Q12809 whole entry): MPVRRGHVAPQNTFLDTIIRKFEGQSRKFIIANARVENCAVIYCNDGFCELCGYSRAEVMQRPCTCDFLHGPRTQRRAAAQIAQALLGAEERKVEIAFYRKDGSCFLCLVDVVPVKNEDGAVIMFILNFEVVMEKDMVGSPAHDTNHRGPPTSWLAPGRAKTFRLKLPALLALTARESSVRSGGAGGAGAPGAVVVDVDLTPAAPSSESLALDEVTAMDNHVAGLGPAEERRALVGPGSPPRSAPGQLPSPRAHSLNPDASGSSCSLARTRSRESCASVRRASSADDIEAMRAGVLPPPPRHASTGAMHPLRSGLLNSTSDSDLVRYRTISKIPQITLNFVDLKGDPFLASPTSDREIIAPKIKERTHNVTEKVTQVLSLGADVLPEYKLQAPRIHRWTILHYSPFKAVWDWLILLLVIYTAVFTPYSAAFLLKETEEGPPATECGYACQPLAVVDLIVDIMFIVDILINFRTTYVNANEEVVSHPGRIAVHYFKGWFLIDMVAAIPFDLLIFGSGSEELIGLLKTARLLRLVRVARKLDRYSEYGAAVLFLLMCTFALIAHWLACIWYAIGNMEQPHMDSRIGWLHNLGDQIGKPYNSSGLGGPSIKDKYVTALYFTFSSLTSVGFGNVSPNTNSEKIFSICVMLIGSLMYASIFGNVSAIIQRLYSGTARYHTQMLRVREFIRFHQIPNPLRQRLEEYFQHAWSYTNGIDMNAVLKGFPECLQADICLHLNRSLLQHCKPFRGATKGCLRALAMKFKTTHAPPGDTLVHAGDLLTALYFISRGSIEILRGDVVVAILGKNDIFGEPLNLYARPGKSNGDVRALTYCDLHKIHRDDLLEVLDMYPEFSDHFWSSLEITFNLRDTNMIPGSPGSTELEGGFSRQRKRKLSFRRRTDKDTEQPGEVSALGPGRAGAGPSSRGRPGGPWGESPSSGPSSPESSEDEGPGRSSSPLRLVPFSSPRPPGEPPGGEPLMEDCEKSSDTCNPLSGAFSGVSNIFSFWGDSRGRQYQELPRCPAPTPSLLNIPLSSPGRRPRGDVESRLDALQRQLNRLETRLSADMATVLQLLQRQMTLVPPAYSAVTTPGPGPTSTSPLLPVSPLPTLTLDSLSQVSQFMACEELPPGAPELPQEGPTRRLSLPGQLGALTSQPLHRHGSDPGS

[3] = DRUGMATRIX: Sodium/nucleoside co-transporter radioligand binding (ligand: nitrobenzylthioinosine); assay type: cell membranes, Cavia porcellus, Dunkin-Hartley, Cerebral cortex, Membrane; details: Not Active = under 50% inhibition at 10 µM

| Structure (SMILES) | IC50 (Substance-K receptor; cho) | IC50 [1] | Ki [1] | IC50 (Interstitial collagenase) | IC50 (Insulin receptor) | IC50 (Melanocortin receptor 5; hek293) | IC50 [2] | Ki [2] | IC50 [3] | Ki [3] | Ki (Substance-K receptor; cho) | Ki (Interstitial collagenase) | Ki (Insulin receptor) | Ki (Melanocortin receptor 5; hek293) | IC50 (Substance-K receptor; read-out: IC50) | Ki (Substance-K receptor; read-out: Ki) | IC50 (Melanocortin receptor 5; read-out: IC50) | Ki (Melanocortin receptor 5; read-out: Ki) | IC50 (Interstitial collagenase; read-out: IC50) |
| --- | --- | --- | --- | --- | --- | --- | --- | --- | --- | --- | --- | --- | --- | --- | --- | --- | --- | --- | --- |
| CC(C)CN(C[C@@H](O)[C@H](Cc1ccccc1)NC(=O)O[C@H]1CCOC1)S(=O)(=O)c1ccc(N)cc1 | Not Active | Not Active | Not Active | Not Active | Not Active | Not Active | Not Active | Not Active | Not Active | Not Active |  |  |  |  |  |  |  |  |  |
| c1ccc(Nc2ccc(Nc3ccccc3)cc2)cc1 | Not Active | Not Active | Not Active | Not Active | Not Active | Not Active | Not Active | Not Active | Not Active | Not Active |  |  |  |  |  |  |  |  |  |
| COc1cc2c3cc1Oc1cc(ccc1O)C[C@@H]1c4c(cc(OC)c(O)c4Oc4ccc(cc4)C[C@@H]3N(C)CC2)CC[N+]1(C)C.[Cl-] | Not Active | Not Active | Not Active | Not Active | Not Active | Not Active | Not Active | Not Active | Not Active | Not Active |  |  |  |  |  |  |  |  |  |
| NC(=O)N1c2ccccc2CCc2ccccc21 | Not Active | Not Active | Not Active | Not Active | Not Active | Not Active | Not Active | Not Active | Not Active | Not Active |  |  |  |  |  |  |  |  |  |
| O=C1CC[C@@H](N2C(=O)c3ccccc3C2=O)C(=O)N1 | Not Active | Not Active | Not Active | Not Active | Not Active | Not Active | Not Active | Not Active | Not Active | Not Active |  |  |  |  |  |  |  |  |  |
| Cc1onc(O)c1CC(N)C(=O)O (racemic) [(R,S)-AMPA] | Not Active | Not Active | Not Active | Not Active | Not Active | Not Active | Not Active | Not Active | Not Active | Not Active |  |  |  |  |  |  |  |  |  |
| Cc1ccc2cc3c(ccc4ccccc43)c3c2c1CC3 [3-METHYLCHOLANTHRENE] | Not Active | Not Active | Not Active | Not Active | Not Active | Not Active | Not Active | Not Active | Not Active | Not Active |  |  |  |  |  |  |  |  |  |
| CC[C@@]1(O)C[C@H](O[C@H]2C[C@H](N(C)C)[C@H](O[C@H]3C[C@H](O)[C@H](O[C@H]4CCC(=O)[C@H](C)O4)[C@H](C)O3)[C@H](C)O2)c2c(cc3c(c2O)C(=O)c2c(O)cccc2C3=O)[C@H]1C(=O)OC [ACLARUBICIN] | Not Active | Not Active | Not Active | Not Active | Not Active | Not Active | Not Active | Not Active | Not Active | Not Active |  |  |  |  |  |  |  |  |  |
| Nc1nc2c(ncn2COCCO)c(=O)[nH]1 [ACYCLOVIR] | Not Active | Not Active | Not Active | Not Active | Not Active | Not Active |  |  | Not Active | Not Active |  |  |  |  |  |  |  |  |  |
| Cc1c(C)c2c(c(C)c1O)CC[C@@](C)(CCC[C@H](C)CCC[C@H](C)CCCC(C)C)O2 [ALPHA-TOCOPHEROL] | Not Active | Not Active | Not Active | Not Active | Not Active | Not Active | Not Active | Not Active | Not Active | Not Active |  |  |  |  |  |  |  |  |  |
| CN(C)c1nc(N(C)C)nc(N(C)C)n1 [ALTRETAMINE] | Not Active | Not Active | Not Active | Not Active | Not Active | Not Active | Not Active | Not Active | Not Active | Not Active |  |  |  |  |  |  |  |  |  |
| Nc1c(Br)cc(Br)cc1CN[C@H]1CC[C@H](O)CC1 [AMBROXOL] | Not Active | Not Active | Not Active | Not Active | Not Active | Not Active | Not Active | Not Active | Not Active | Not Active |  |  |  |  |  |  |  |  |  |
| NCCCCCC(=O)O [AMINOCAPROIC ACID] | Not Active | Not Active | Not Active | Not Active | Not Active | Not Active | Not Active | Not Active | Not Active | Not Active |  |  |  |  |  |  |  |  |  |
| CCC1(c2ccc(N)cc2)CCC(=O)NC1=O (stereo not drawn) [AMINOGLUTETHIMIDE] | Not Active | Not Active | Not Active | Not Active | Not Active | Not Active | Not Active | Not Active | Not Active | Not Active |  |  |  |  |  |  |  |  |  |
| Cc1ccc(/N=C/N(C)/C=N/c2ccc(C)cc2C)c(C)c1 [AMITRAZ] | Not Active | Not Active | Not Active | Not Active | Not Active | Not Active | Not Active | Not Active | Not Active | Not Active |  |  |  |  |  |  |  |  |  |
| CCOC(=O)C1=C(COCCN)NC(C)=C(C(=O)OC)C1c1ccccc1Cl (stereo not drawn) [AMLODIPINE] | Not Active | Not Active | Not Active | Not Active | Not Active | Not Active |  |  | Not Active | Not Active |  |  |  |  |  |  |  |  |  |
| COc1ccc(C[C@H]2NC[C@H](O)[C@H]2OC(C)=O)cc1 [ANISOMYCIN] | Not Active | Not Active | Not Active | Not Active | Not Active | Not Active | Not Active | Not Active | Not Active | Not Active | Not Active | Not Active | Not Active | Not Active |  |  |  |  |  |
| Nc1ncn([C@@H]2O[C@H](CO)[C@@H](O)[C@H]2O)c(=O)n1 [AZACITIDINE] | Not Active | Not Active | Not Active | Not Active | Not Active | Not Active | Not Active | Not Active | Not Active | Not Active |  |  |  |  |  |  |  |  |  |
| CN(C)C(=O)Oc1cc(OC(=O)N(C)C)cc(C(O)CNC(C)(C)C)c1 (stereo not drawn) [BAMBUTEROL] | Not Active | Not Active | Not Active | Not Active | Not Active | Not Active | Not Active | Not Active | Not Active | Not Active |  |  |  |  |  |  |  |  |  |
| CC(NC(C)(C)C)C(=O)c1cccc(Cl)c1 (stereo not drawn) [BUPROPION] | Not Active | Not Active | Not Active | Not Active | Not Active | Not Active |  |  | Not Active | Not Active |  |  |  |  |  |  |  |  |  |
| CN(C)CCCN1c2ccccc2Sc2ccc(Cl)cc21 [CHLORPROMAZINE] |  | Not Active | Not Active | Not Active | Not Active |  |  |  | Not Active | Not Active |  |  |  |  | 27.2 µM | 9.07 µM | 7.62 µM | 7.15 µM |  |
| CNCCCN1c2ccccc2CCc2ccccc21 [DESIPRAMINE] | Not Active | Not Active | Not Active | Not Active | Not Active | Not Active |  |  | Not Active | Not Active |  |  |  |  |  |  |  |  |  |
| COc1cc2nc(N3CCN(C(=O)C4COc5ccccc5O4)CC3)nc(N)c2cc1OC (stereo not drawn) [DOXAZOSIN] | Not Active | Not Active | Not Active |  | Not Active | Not Active |  |  | Not Active | Not Active |  |  |  |  |  |  |  |  | 5.75 µM |
| O=C(CCCN1CC=C(n2c(=O)[nH]c3ccccc32)CC1)c1ccc(F)cc1 [DROPERIDOL] | Not Active | Not Active | Not Active | Not Active | Not Active | Not Active |  |  | Not Active | Not Active |  |  |  |  |  |  |  |  |  |
| N=C(N)NCCN1CCCCCCC1 [GUANETHIDINE] | Not Active | Not Active | Not Active | Not Active | Not Active | Not Active |  |  | Not Active | Not Active |  |  |  |  |  |  |  |  |  |
| Cc1ccc(N(CC2=NCCN2)c2cccc(O)c2)cc1 [PHENTOLAMINE] | Not Active | Not Active | Not Active | Not Active | Not Active | Not Active |  |  | Not Active | Not Active |  |  |  |  |  |  |  |  |  |
